One data set has as its system LIM1215. As to the kind of experiment: Antimitotic effects (G2/M cell cycle block, DNA staining, ModFit) on LIM1215. As to conditions: for % of Taxol (proportion of cells in G2M test/proportion of cells in G2M Taxol): 24 hrs, standard 1 μM Taxol; for IC50: Homo sapiens, inhibitors added to cells in log-growth for 24 hrs, read-out: IC50 for progression through the cell cycle. Type of data set: cell-based, human. An excerpt: (§1) For the initial studies two colon carcinoma cell lines (LIM1215 and SW480) and two breast cancer cell lines (MDA-MB-231 and MCF-7) were used. Taxol was used as comparator in these experiments (Table 1).

The subject of the next data set is SW480. In words: Antimitotic effects (G2/M cell cycle block, DNA staining, ModFit) on SW480. The format is cell-based, human. Particulars: for % of Taxol (proportion of cells in G2M test/proportion of cells in G2M Taxol): 24 hrs, standard 1 μM Taxol; for IC50: Homo sapiens, inhibitors added to cells in log-growth for 24 hrs, read-out: IC50 for progression through the cell cycle.
From the text: as §1

The test system of a further data set is MDA-MB-231. As to the kind of experiment: Antimitotic effects (G2/M cell cycle block, DNA staining, ModFit) on MDA-MB-231. The format is cell-based, human. Particulars: for % of Taxol (proportion of cells in G2M test/proportion of cells in G2M Taxol): 24 hrs, standard 1 μM Taxol; for IC50: Homo sapiens, inhibitors added to cells in log-growth for 24 hrs, read-out: IC50 for progression through the cell cycle.
From the text: as §1

The next data set has as its system MCF-7. As to the kind of experiment: Antimitotic effects (G2/M cell cycle block, DNA staining, ModFit) on MCF-7. Type of data set: cell-based, human. Particulars: for % of Taxol (proportion of cells in G2M test/proportion of cells in G2M Taxol): 24 hrs, standard 1 μM Taxol; for IC50: Homo sapiens, MCF7, inhibitors added to cells in log-growth for 24 hrs, read-out: IC50 for progression through the cell cycle.
From the text: as §1

Data set [1] in a line: Dose escalation in mice (tolerability and toxicity). The format is in vivo. As to conditions: C57Bl/6 mice, subcutaneous in DMSO, sacrificed 24 hrs post-injection. As to the method: Compound 1 was initially tested for tolerability and toxicity in mice. C57Bl/6 mice (aged 8-12 weeks) were injected subcutaneously with escalating doses of Compound 1 in a constant volume of DMSO. Mice were sacrificed 24 hrs post-injection. There were no adverse effects of doses up to 80 mg/kg within this time-frame. Thus the compound is well tolerated at doses that far exceed the IC50 observed “in vitro”.
These minor skin lesions healed readily within 2-3 days.

In data set [2] the test system is LIM2537 human colon carcinoma cell line. As to the kind of experiment: MTS assay using LIM2537 human colon carcinoma cell line. The format is cell-based. As to conditions: 96 h, LIM2537, 4 days incubation, read-out: IC50 Range. As to the method: • Cells plated at […] in 100 μl medium+5% FCS (+Adds^1): • Cells incubated overnight: • Titrate inhibitors in a fresh plate in 150 μl medium • Transfer 100 μl titrated compounds to matching wells of the cell plate. • Incubate a further 4 days: • Add 10 μl MTS^2 or MTT^3 for 1.5 to 2 hours and read on Multiscanner (wavelengths 492/690) ^1 Additives for culture of LIM cell lines: 10 μM thioglycerol, 0.025 U/ml insulin, 1 μg/ml hydrocortisone. ^2 3-(4,5-dimethylthiazol-2-yl)-5-(3-carboxymethoxyphenyl)-2-(4-sulfophenyl)-2H-tetrazolium. ^3 3-(4,5-Dimethylthiazol-2-yl)-2,5-diphenyltetrazolium bromide
• LIM2537 human colon carcinoma cell line, grown in RPMI+Adds^1+5% FCS
Cells are trypsinized and washed ×2 in medium+5% FCS and plate out at 10^4 cells per well in 100 μl.
Incubate plates o/n 37° C.+5%-10% CO2 incubator.
Inhibitors are dissolved in DMSO to make 10 mM stocks and titrated in a 96 well plate in duplicate to use as the stock for the test plate. Titration range from 40 μM down to […] in ½ dilutions and 100 μl of each dilution transferred to the appropriate wells of the test plate that contains the cells (also in 100 μl) which results in the final concentration of the inhibitors being 20 μM down to 0.01 μM across the rows in duplicate. Three inhibitors are tested per plate (Rows A-F).
Each plate has the following: • Rows A,B: Inhibitor 1 dilutions, 200 μl per well • Rows C,D: Inhibitor 2 dilutions, 200 μl per well • Rows E,F: Inhibitor 3 dilutions, 200 μl per well • Control row G1-6: Medium+5% FCS (for maximum growth) • Control row G7-12: Taxol (250 nM for maximal inhibition) • Control row H: Remove medium from cells and replace with 200 μl Serum Free medium for serum free growth rate.
Incubate plates for 4 days in incubator. Process with MTS or MTT as outlined below.
To each well add 10 μl MTS (Sigma) solution. Incubate MTS for 1.5 to 2 hours and MTT for 4 hours. Stop reaction by adding 10 μl 10% SDS to each well. Read on Multiscan (492/690) plate reader, plot colour change versus concentration of inhibitor to establish the IC50.

A further data set has as its system tubulin. As to the kind of experiment: Tubulin polymerization in intact cells (soluble vs polymerized tubulin, immunoblot). As to conditions: LIM 1215 cells, NP-40 lysis, immunoblot with β-tubulin antibodies. Type of data set: cell-based. In general terms: A western blot detects proteins with antibodies after separation by electrophoresis.

As usually defined, the IC50 is the concentration that gives 50% inhibition.

Description for tubulin: Equal volumes of supernatant and resuspended insoluble material were analyzed by SDS/PAGE and immunoblotting with antibodies to β-tubulin. S=soluble and P=polymerized tubulin. […] To monitor the effects of triazines on tubulin, the present inventors tested tubulin polymerization in intact cells following exposure to the drug. Cells treated with Taxol or with compound 3 were lysed in hypotonic buffer containing 0.5% NP-40 and the cellular extracts were centrifuged at high speed. Polymerized tubulin is detergent-insoluble: thus after this treatment soluble tubulin is recovered in the supernatants (S), and polymerized tubulin in the cellular pellets (P). The relative proportion of the two forms was monitored by SDS/PAGE and immunoblotting with tubulin-specific antibodies.

On to `COc1ccc(CNc2nc(NCc3ccc(OC)cc3)nc(NN3CC(=O)NC3=O)n2)cc1` [Compound 1, 1-[4,6-Bis-(4-methoxybenzylamino)-{1,3,5}-triazin-2-yl-amino]-imidazolidine-2,4-dione], for which the “% of Taxol (proportion of cells in G2M test/proportion of cells in G2M Taxol)” value in the data set with LIM1215 came out at 105%; with SW480, 120%; in the data set with MDA-MB-231, 94%; in the data set on MCF-7, 108%. The IC50 in the data set with LIM1215 amounted to 70 nM; in the data set with SW480, 50 nM; in the data set with MDA-MB-231, 13 nM; with MCF-7, 9 nM. Besides, the “Doses with no adverse effects” value in data set [1] is “up to 80 mg/kg”.
As to `COc1ccc(CNc2nc(NCc3ccc(OC)cc3)nc(NC3NC(=O)N(C)C3=O)n2)cc1` (centres unmarked) [Compound 3, 5-[4,6-Bis-(4-methoxy-benzylamino)-[1,3,5]-triazin-2-ylamino]-3-methyl-imidazolidine-2,4-dione], the “% of Taxol (proportion of cells in G2M test/proportion of cells in G2M Taxol)” value is reported as 108% with LIM1215, 106% with SW480, 93% with MDA-MB-231 and 102% in the data set on MCF-7. For the same compound, the IC50 was determined as 3000 nM with LIM1215, 1450 nM with SW480, 3000 nM in the data set on MDA-MB-231 and 450 nM with MCF-7.
Consider `COc1ccc(CNc2nc(NCc3ccc(CN4CCCCC4)cc3)nc(NN3CC(=O)NC3=O)n2)cc1` [Compound 13, 1-((4-((4-methoxybenzyl)amino)-6-((4-(piperidin-1-ylmethyl)benzyl)amino)-1,3,5-triazin-2-yl)amino)imidazolidine-2,4-dione], for which the IC50 in data set [2] lay within 100 to 1000 nM.
For `COc1ccc(CNc2nc(NCc3ccc(CN4CCOCC4)cc3)nc(NN3CC(=O)NC3=O)n2)cc1` [Compound 14, 1-((4-((4-methoxybenzyl)amino)-6-((4-(morpholinomethyl)benzyl)amino)-1,3,5-triazin-2-yl)amino)imidazolidine-2,4-dione], in data set [2], the IC50 was more than 10000 nM.
`CCN(CC)Cc1ccc(CNc2nc(NCc3ccc(OC)cc3)nc(NN3CC(=O)NC3=O)n2)cc1` [Compound 15, 1-((4-((4-((diethylamino)methyl)benzyl)amino)-6-((4-methoxybenzyl)amino)-1,3,5-triazin-2-yl)amino)imidazolidine-2,4-dione]: the IC50 in data set [2] fell in the range of 1000 to 10000 nM.
In the case of `COc1ccc(CNc2nc(NCc3ccc(CN4CCN(C)CC4)cc3)nc(NN3CC(=O)NC3=O)n2)cc1` [Compound 16, 1-((4-((4-methoxybenzyl)amino)-6-((4-((4-methylpiperazin-1-yl)methyl)benzyl)amino)-1,3,5-triazin-2-yl)amino)imidazolidine-2,4-dione], the IC50 in data set [2] was not above 100 nM.
For `COc1ccc(CNc2nc(NCc3ccc(N4CCCCC4)cc3)nc(NN3CC(=O)NC3=O)n2)cc1` [Compound 17, 1-((4-((4-methoxybenzyl)amino)-6-((4-(piperidin-1-yl)benzyl)amino)-1,3,5-triazin-2-yl)amino)imidazolidine-2,4-dione], in data set [2], the IC50 is not above 100 nM.
With `COc1ccc(CNc2nc(NCc3ccc(N4CCOCC4)cc3)nc(NN3CC(=O)NC3=O)n2)cc1` [Compound 18, 1-((4-((4-methoxybenzyl)amino)-6-((4-morpholinobenzyl)amino)-1,3,5-triazin-2-yl)amino)imidazolidine-2,4-dione], the IC50 in data set [2] lay in the range of 100 to 1000 nM.
Consider `COc1ccc(CNc2nc(NCc3ccc(N4CCN(C)CC4)cc3)nc(NN3CC(=O)NC3=O)n2)cc1` [Compound 19, 1-((4-((4-methoxybenzyl)amino)-6-((4-(4-methylpiperazin-1-yl)benzyl)amino)-1,3,5-triazin-2-yl)amino)imidazolidine-2,4-dione], for which the IC50 in data set [2] lay within 100 to 1000 nM.
Regarding `COc1ccc(CNc2nc(NCc3cccc(N4CCCCC4)c3)nc(NN3CC(=O)NC3=O)n2)cc1` [Compound 20, 1-((4-((4-methoxybenzyl)amino)-6-((3-(piperidin-1-yl)benzyl)amino)-1,3,5-triazin-2-yl)amino)imidazolidine-2,4-dione], in data set [2], the half-inhibitory concentration (IC50) was 100 to 1000 nM.
With `COc1ccc(CNc2nc(NCc3cccc(N4CCOCC4)c3)nc(NN3CC(=O)NC3=O)n2)cc1` [Compound 21, 1-((4-((4-methoxybenzyl)amino)-6-((3-morpholinobenzyl)amino)-1,3,5-triazin-2-yl)amino)imidazolidine-2,4-dione], the IC50 in data set [2] was 1000 to 10000 nM.
For `COc1ccc(CNc2nc(NCc3cccc(N4CCN(C)CC4)c3)nc(NN3CC(=O)NC3=O)n2)cc1` [Compound 22, 1-((4-((4-methoxybenzyl)amino)-6-((3-(4-methylpiperazin-1-yl)benzyl)amino)-1,3,5-triazin-2-yl)amino)imidazolidine-2,4-dione], the 50% inhibitory concentration (IC50) in data set [2] was more than 10000 nM.
For `CCN(CC)CCOc1ccc(CNc2nc(NCc3ccc(OC)cc3)nc(NN3CC(=O)NC3=O)n2)cc1` [Compound 23, 1-((4-((4-(2-(diethylamino)ethoxy)benzyl)amino)-6-((4-methoxybenzyl)amino)-1,3,5-triazin-2-yl)amino)imidazolidine-2,4-dione], the IC50 in data set [2] fell in the range of 1000 to 10000 nM.
Turning to `COc1ccc(CNc2nc(NCc3ccc(OCCN4CCOCC4)cc3)nc(NN3CC(=O)NC3=O)n2)cc1` [Compound 24, 1-((4-((4-methoxybenzyl)amino)-6-((4-(2-morpholinoethoxy)benzyl)amino)-1,3,5-triazin-2-yl)amino)imidazolidine-2,4-dione], the IC50 in data set [2] lay in the range of 100 to 1000 nM.
`CC(=O)O[C@H]1C(=O)[C@@]2(C)[C@H]([C@H](OC(=O)c3ccccc3)[C@]3(O)C[C@H](OC(=O)[C@H](O)[C@@H](NC(=O)c4ccccc4)c4ccccc4)C(C)=C1C3(C)C)[C@]1(OC(C)=O)CO[C@@H]1C[C@@H]2O` [Taxol, reference compound]: the “% of Taxol (proportion of cells in G2M test/proportion of cells in G2M Taxol)” value with LIM1215, in the data set with SW480, with MDA-MB-231 and with MCF-7 was 100% throughout. In addition, the IC50 worked out at 10 nM in the data set on LIM1215, 8 nM with SW480, 8 nM with MDA-MB-231 and 8 nM with MCF-7. In addition, the “Stabilization of tubulin in treated cells (soluble vs polymerized)” value in the data set on tubulin is “strongly stabilized tubulin in a dose-dependent manner”.

For the origin of these results see patent US8835629B2, “Anti-cancer agents” (The Walter and Eliza Hall Institute of Medical Research, priority 2010, dated 2014).
